Data: publication PMC6320874, “Inhibitory Effect of Naphthoquinone-Tryptophan Hybrid towards Aggregation of PAP f39 Semen Amyloid” (Molecules, 2018)

What was measured:
PAP f39 (PAP248-286) [1] = target: T1, PAP f39 (PAP248-286) (Homo sapiens, UniProt P15309); experiment: ThT fluorescence aggregation assay; type: biochemical; conditions: PBS pH 7.3, 37 °C, 1200 rpm, 96 h; 0.44 mM PAP f39, 0.022 mM NQTrp; inhibition of fibril formation
T1 construct: gene ACP3; synthetic 39-residue peptide fragment 248-286 (GL Biochem), N-terminal Gly, C-terminal Tyr, HFIP-pretreated monomer; 2L3H is only the docking structure of this peptide
T1 sequence (P15309 248-286): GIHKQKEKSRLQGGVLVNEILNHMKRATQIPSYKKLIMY

PAP f39 (PAP248-286) [2] = target: T1, PAP f39 (PAP248-286); experiment: isothermal titration calorimetry; type: binding

- % amyloid inhibition at 20:1 (PAP f39:NQTrp) (PAP f39 (PAP248-286) [1]): ~ 70%
- Kd (PAP f39 (PAP248-286) [2]): 5.94 ± 1.26 µM
SMILES: O=C1C=C(N[C@@H](Cc2c[nH]c3ccccc23)C(=O)O)C(=O)c2ccccc21 [NQTrp]
